{"source": "patent US20120276064A1", "about": "“METHODS AND COMPOSITIONS FOR REJUVENATION AND EXPANSION OF STEM CELLS” (priority 2011, published 2012)", "key": {"[1]": {"test_system": "p38 signaling (phosphorylation of the p38 substrate MK2)", "test": "Phospho-MK2 flow cytometry in primary myoblasts stimulated with anisomycin and TNF", "type": "cell-based", "conditions": "primary mouse myoblasts, 10 μM pretreatment one hour, anisomycin 1 μg/ml + TNF 50 ng/ml 30 min", "experimental": "Phospho-MK2 flow cytometry. To analyze p38 signaling, the phosphorylation of MK2, a readout of p38 kinase activity, was assayed by flow cytometry. Primary mouse myoblasts were isolated as previously described. Myoblasts were cultured on collagen-coated tissue-culture plastic dishes in myogenic cell medium and were maintained at 37° C. in 5% CO2. Myoblasts were pretreated with 0.1% DMSO carrier control or 10 μM SB202190 for one-hour and then were stimulated with anisomycin (1 μg/ml; Sigma) and TNF (50 ng/ml; R&D Systems, Minneapolis, Minn.) for 30 minutes or mock buffer (PBS). Pretreatments and stimuli were added in 50× spike solutions. After 15 minutes, cells were collected from hydrogel cultures by incubation 0.5% trypsin in PBS for 2 min at 37° C. Cells were fixed with 1.5% paraformaldehyde in PBS, permeabilized in methanol at −80° C., and stained with an AlexFluor488-conjugated antibody reactive to the phosphorylated (Thr334) form of MK2 (Cell Signaling). Cells were analyzed for phospho-MK2 positivity on a modified FACStar Plus flow cytometer using FACS Diva software (BD Biosciences)."}, "[2]": {"test_system": "p21, Myogenin, Pax7 transcripts in MuSCs", "test": "Quantitative real-time PCR gene expression in hydrogel-cultured MuSCs", "type": "cell-based, mouse", "conditions": "old MuSCs, soft hydrogel, 10 μM, one week", "experimental": "MuSC culture and treatment. Following isolation, MuSCs were pelleted and resuspended into myogenic cell culture medium containing DMEM/F10 (50:50), 15% FBS, 2.5 ng/ml bFGF, and 1% penicillin/streptomycin. MuSCs were seeded at 1000 cells per well (24-well plate size wells, 2.0 cm^2 surface area) on laminin-tethered hydrogels of either 12 kPa (soft) or ˜10^6 kPa (rigid) rigidities. Cells were maintained at 37° C. in 5% CO2. Media was changed daily. For proliferation and p38 inhibition studies, the following ligands/inhibitors were supplemented in the myogenic medium and maintained consistently through the experiment: 25 ng/ml Wnt7a (R&D Systems, Minneapolis, Minn.), 25 ng/ml Jagged1-Fc (R&D Systems, Minneapolis, Minn.), 10 nM tautomycetin (PP1 inhibitor; Tocris Bioscience, Ellisville, Mo.), 10 μM SB202190 or 10 μM SB203580 (p38 inhibitors; EMD Chemicals, Gibbstown, N.J.), 1 μM SB431542 (ALK4/5/7 inhibitor; Tocris Bioscience), or 0.1% DMSO carrier control. All MuSC cell culture assays and transplantations were performed after one week of culture unless noted otherwise.\nQuantitative real-time PCR. RNA was isolated from freshly isolated and cultured cells using the RNeasy Micro kit (Qiagen, Valencia, Calif.). Total RNA from each sample was reverse transcribed using the High Capacity cDNA RT kit (Applied Biosystems, Carlsbad, Calif.). cDNA was subjected to real-time PCR using a SYBR Green PCR Master Mix (Applied Biosystems). Real-time PCR was performed using an ABI 7900HT Real Time PCR system and software (Applied Biosystems). Samples were cycled at 95° C. for 10 min and then 40 cycles of 95° C. for 15 sec and 60° C. for 1 min. To quantify relative transcript levels, the 2^−ΔΔCt method was used, and freshly isolated young MuSCs were used as reference value (plotted as 1 in all graphs). Gapdh was used as a normalizing gene. Primer sequences for Gapdh, p21, myogenin, and Pax7 were obtained from literature or using NIH Primer3."}, "[3]": {"test_system": "myogenin protein expression in young MuSCs", "test": "Myogenin immunofluorescence analysis of hydrogel-cultured MuSCs", "type": "cell-based, mouse", "conditions": "soft hydrogel, 10 μM, one week, compared to control", "experimental": "Myogenin immunofluorescence analysis. MuSCs from young mice were isolated and cultured on 12 kPa hydrogels with either 0.1% DMSO control or 10 μM SB202190. After one week of culture, cells were fixed with 0.5% paraformaldehyde in PBS. Fixed cells were blocked with 20% goat serum and 0.5% Triton X100 in PBS. Cells were stained with anti-myogenin antibody (Santa Cruz Biotechnology, Santa Cruz, Calif.) and then an AlexaFluor594-conjugated secondary antibody (Invitrogen). Nuclei were stained with Topro3 (Invitrogen)the Immunofluorescence images were acquired using a LSM510 laser-scanning confocal microscope (Carl Zeiss Microimaging) with a Plan NeoFluar 20x/0.75NA objective. Digital images were captured using LSM510 software. Images were composed and edited in Photoshop software (Adobe). Background was reduced and contrast was enhanced equivalently across all images of the same stain. Nuclear regions were identified by Topro3 staining using MetaMorph software (Molecular Devices, Sunnyvale, Calif.). Within each nuclear region, the myogenin intensity was integrated using MetaMorph software. Nuclear myogenin intensities from each condition were plotted in a log-scale histogram to establish a threshold defining myogenin-positive cells."}, "[4]": {"test_system": "tibialis anterior muscle of notexin-injured old mice", "test": "In vivo force measurements after systemic SB202190 administration", "design": "species or system mouse", "conditions": "5 mg/kg IP, 5 daily injections starting one day after notexin injury, two months post-injury", "experimental": "Systemic SB202190 administration. Old mice were systemically administered SB202190 (5 mg/kg body weight in 0.9% NaCl/H2O) with five daily doses by IP injection starting at one day after NTX injury.\nIn vivo force measurements. Force measurements were performed on tibialis anterior (TA) muscles in vivo in anesthetized mice, as previously described. The hindlimb was shaved and fixed to a frame to immobilize it without compromising the blood supply to the leg. The animal was warmed on an isothermal pad and by heat lamp. A small incision was placed in the skin directly above the TA muscle. The distal tendon was sutured to a thin metal hook and then attached to a force transducer (300C-LR; Aurora Scientific, Aurora, Ontario). Distal tendons from all front lower hindlimb muscles other than TA were cut, leaving TA isolated during attachment to the force transducer. The muscles and tendons were kept moist by periodic wetting with saline (0.9% sodium chloride) solution. […] Muscle force and synchronization pulses were recorded for 2 seconds immediately prior to the stimulation and 3 seconds after the end of the stimulation. […] Data were collected with a PCI-6251 data acquisition card (National Instruments, Austin, Tex.) and analyzed in Matlab. Specific force values were calculated by normalizing the force measurements by the muscle physiological cross-sectional area (PCSA), as described previously: […]"}}}
{"smiles": "Oc1ccc(-c2nc(-c3ccncc3)c(-c3ccc(F)cc3)[nH]2)cc1", "note": "[SB202190]", "values": [{"measurement": "p38 signaling activity / MK2 phosphorylation", "setting": "[1]", "value": "prevents MK2 phosphorylation"}, {"measurement": "p38 signaling activity / MK2 phosphorylation", "setting": "[1]; listed as SB", "value": "substantially attenuated p38 signaling activity"}, {"measurement": "Transcription of the MuSC transcription factor Pax7", "setting": "[2]", "value": "increased"}, {"measurement": "Transcription of the cell cycle inhibitor p21", "setting": "[2]", "value": "decreased"}, {"measurement": "Transcription of the commitment marker Myogenin", "setting": "[2]", "value": "decreased"}, {"measurement": "Percentage of myogenin+ cells", "setting": "[3]", "value": "greatly diminished"}, {"measurement": "Recovery of twitch and tetanus forces", "setting": "[4]", "value": "aided recovery"}]}
